Reference: a compilation of properties of binary mixtures (doi:10.1016/j.molliq.2020.112507)

Assay: xn = mol fraction of the nth substance listed
Settings: 100 kPa

CCCC[n+]1ccn(C)c1.COS(=O)(=O)[O-] + CCCC#N
x1 = 1
Settings	speed of sound [m/s]
298.15 K	1654.9
308.15 K	1630.2
313.15 K	1618.2

CCCC#N + CCCC[n+]1ccn(C)c1.COS(=O)(=O)[O-]
speed of sound [m/s]
Settings	x2 = 0	x2 = 0.1117	x2 = 0.2128	x2 = 0.3714	x2 = 0.4263	x2 = 0.5115	x2 = 0.6345	x2 = 0.7161	x2 = 0.8065	x2 = 0.9072
298.15 K	1279.9	–	1395.9	1468.7	1490.6	1521.4	1559.7	–	1605.3	1630.9
303.15 K	1260.6	1323.5	1378.9	1452.9	1475.5	–	1545.8	1568.8	–	1618.2
308.15 K	1241	1305.2	1361.8	1437.1	1460.3	–	1531.9	–	1579.1	1605.5
313.15 K	1221.2	1286.9	1344.7	1421.4	–	1477.3	–	1541.4	1566	1592.8
